Reference: patent US20230078820A1, “FE[…] TREATMENT OF DEMYELINATING DISEASES AND CONDITIONS” (ZOGENIX INTERNATIONAL LIMITED, priority 2021, published 2023)

How the values were obtained:
SCN1a+/− (Dravet) mice [1] = test: CD11b+ activated microglia immunostaining score in brain sections, murine model of Dravet syndrome; assay type: in vivo, mouse; conditions: for CD11b Avg Score, Genu / CD11b Avg Score, PP / CD11b Avg Score, PP + Genu: Het mice, s.c. once daily P7 to P35-P37, FFA 15 mg/kg, diazepam 10 mg/kg; for CD11b Avg Score, Genu: genu of corpus callosum; for CD11b Avg Score, Genu / CD11b Avg Score, PP: scale 0-5; for CD11b Avg Score, PP: perforant pathway of hippocampus; for CD11b Avg Score, PP + Genu: sum of perforant pathway and genu, maximum 10, p = 0.05 Het FFA vs Het vehicle; for effect on CD11b+ activated microglia vs vehicle (saline): genu and perforant pathway of P35-P37 SCN1a+/− mice, 2-tail unequal variance t-test, FIG. 4
From the text: (§1) Epilepsy is increasingly recognized as a disease of white matter pathology and damage, see Hatton, S. N. et al [Epilepsy Currents 2021 21:27-29]. To test whether fenfluramine reduced pathology and damage to myelin, a mouse model of Dravet syndrome was used. […] Heterozygous Dravet animals used in the studies reported in Examples 2 and 3 are Scn1atm1Kea 50% C57BL/6J, 50% 129S6/SvEvTac background strain mice generated as described in Miller, A. R. et al. [Genes Brain Behav. 2014 February; 13(2): 163-172]. Briefly, a heterozygous Scn1a+/− null allele was generated by targeted deletion of the first coding exon in TL1 ES cells (12956/SvEvTac). These mice were established and maintained as a co-isogenic strain on the 12956/SvEvTac (129) background. […] P ranges, stated as, e.g. P35-P37, indicate the days postnatal of the study animals Normal axonodendritic, axonosomatic and axonoaxonic synaptic pruning occurs in all mice and peaks at postnatal P21. Postnatal ages for the study animals were chosen to avoid periods of high natural demyelination and microglial activity.
(§2) In Heterozygous Animals, drug or saline sham treatment began at age P7 (i.e., 7 days after birth) with subcutaneous administration of drug or saline injected via insulin syringes.
(§3) At day 7 all pups in each litter were administered an injection volume of 10 μl/g body weight once per day containing: 1) fenfluramine at 15 mg/kg; 2) diazepam at 10 mg/kg; or 3) vehicle (0.9% saline solution), each injection volume based on body weight.
(§4) The administration of each intervention continued every day until age P35-P37, at which time animals were sacrificed to obtain blood and brain tissues which amounted to an aggregate of 28 to 30 days of once daily dosing.
Vector ImPRESS-AP alkaline phosphatase conjugated anti-rabbit IgG (Vector Laboratories) was applied in the secondary detection step with Vector Blue AP substrate as the chromogen. Nuclear Fast Red was applied as a non-specific tissue counterstain before dehydration, clearing, and coverslip mounting steps. Vector Blue signals within finished slides were visualized with the DAPI (UV) excitation/emission channel on an Echo Revolve fluorescence microscope under the 20× objective. Non-specific Nuclear Fast Red staining was visualized under the Texas Red excitation/emission channel to provide anatomical contexts to the overlaid CD11b signals. Perfusion fixed sagittal 5 um FFPE brain sections within approximately 300 um from the midline of the right brains of the P35-P37 wildtype and SCN1A heterozygous 50% B6/50% 129S6 mice from the Fintepla/Diazepam/Saline comparator study were examined for CD11b+ microglia.
A 0-5 ascending pathologist scale was applied in scoring CD11b+ microglia in the perforant pathway of the hippocampus following the hippocampal fissure and murine white matter in the front knob, “genu,” of the corpus callosum (CC). The CC is an elongated midline structure composed of 200-800 million horizontal interconnecting cortical areas. The mature CC contains both myelinated and unmyelinated fibers as well as glial cells (astrocytes and oligodendrocytes), and neurons. The human CC has been divided into five anatomical regions, which include from front to back, the rostrum, the genu, the body or trunk-often subdivided into anterior, middle and posterior body-the isthmus, and the splenium. Most neurons in the callosal fibers release excitatory amino acids (glutamate or aspartate), however a small proportion of GABAergic neurons have been identified in mammals
The scores of the genu and perforant pathway were summed for each animal for a maximum possible score of 10. This antibody preferentially detects activated microglia over surveilling, quiescent microglia across human, rat, and mouse species. Normal, healthy mice have more basal microglial activation in the CNS compared to the normal human CNS.

SCN1a+/− (Dravet) mice [2] = test: DMBP (degraded myelin basic protein) immunostaining score of myelin debris in brain sections, murine model of Dravet syndrome; assay type: in vivo, mouse; conditions: for DMBP Avg Score, Ctx / DMBP Avg Score, Hipp / DMBP Avg Score, Hipp + Ctx: Het mice, s.c. once daily P7 to P35-P37, FFA 15 mg/kg, diazepam 10 mg/kg; for DMBP Avg Score, Ctx: cortex; for DMBP Avg Score, Ctx / DMBP Avg Score, Hipp: scale 0-5; for DMBP Avg Score, Hipp: hippocampus, p = 0.00015 Het FFA vs Het vehicle; for DMBP Avg Score, Hipp + Ctx: sum of hippocampus and cortex, maximum 10, p = 0.01 Het FFA vs Het vehicle; for effect on myelin debris (D-MBP) score vs vehicle (saline): hippocampus and cortex of P35-P37 SCN1a+/− mice, 2-tail unequal variance t-test, FIG. 2
From the text: as §1, §2, §3, §4
Mice at the end of the dosing period were isoflurane anaesthetized and blood was drawn through cardiac ventricular puncture without perforating the heart or vessels for subsequent perfusion fixation. Blood was processed for plasma and stored at −80C. After creating an incision in the hepatic circulation to allow perfusates an exit point, mice were flushed of remaining blood with 6 mL ice cold phosphate buffered saline through the left ventricle of the heart. Mice were then perfusion fixed with an additional 6 mL of ice cold 4% paraformaldehyde before carefully harvesting right brains into 10% neutral buffered formalin for 24 hours before transferring into phosphate buffered saline with 0.02% sodium azide as an antimicrobial preservative. Right brains were then embedded to paraffin blocks and processed as formalin fixed, paraffin embedded (FFPE) 5 μm thick sagittal sections on glass slides. These FFPE tissues were immunostained, processed, and imaged for degraded myelin and inflammatory microglia.
DMBP antibody (“degraded” Myelin Basic Protein, Anti-Myelin Basic Protein, Millipore Sigma antibody, formerly Sigma AB5864) was applied at 1:1000 dilution with no antigen retrieval. This antibody preferentially detects debris of myelin degradation in human samples without cross reacting to normal myelin. Vector ImPRESS-AP alkaline phosphatase conjugated anti-rabbit IgG (Vector Laboratories) was applied in the secondary detection step with Vector Blue AP substrate as the chromogen. Nuclear Fast Red was applied as a non-specific tissue counterstain before dehydration, clearing, and coverslip mounting steps. Vector Blue signals within finished slides were visualized with the DAPI (UV) excitation/emission channel on an Echo Revolve fluorescence microscope under the 20× objective. Non-specific Nuclear Fast Red staining was visualized under the Texas Red excitation/emission channel to provide anatomical contexts to the overlaid DMBP signals.

SCN1a+/− (het) mice = test: Kaplan Meier estimation of survival in SCN1a+/− (het) mice; assay type: in vivo, mouse; conditions: P1-P40 SCN1a+/− (het) mice, compared to both placebo and diazepam treatment; FIG. 6
From the text: as §1

sigma-1 receptor = target: T1, sigma-1 receptor (Homo sapiens, UniProt Q99720); test: 3H-fenfluramine binding to proteins expressed on reverse-transfected HEK293 cell arrays (phosphorimaging); conditions: tritium labeled fenfluramine, 1 or 5 micromolar in confirmation; HEK293 cells
T1 construct: arrays of expression vectors, encoding full-length human plasma membrane and tethered secreted proteins; expressed in transfected cells; host or cells: HEK293
Procedure: (§5) Briefly, arrays of expression vectors, encoding full-length human plasma membrane and tethered secreted proteins, were spotted onto coated slides, then HEK293 cells were grown over the top of the spots and became reverse-transfected resulting in cell surface expression of each respective protein at distinct slide locations. Tritium labeled fenfluramine was applied and specific binding analyzed and confirmed using a phosphorimaging technique. […] Confirmation was achieved by repeating the study with vectors encoding RNF43 and sigma-1 receptor proteins spotted onto slides, upon which HEK293 cells were reverse-transfected. Identical slides were treated before or after cell fixation with 1 micromolar or 5 micromolar 3H-fenfluramine, 20 nanomolar 3H-naloxone, or no compound (n=2 slides per treatment).

RNF43 = target: T2, RNF43 (Homo sapiens, UniProt Q68DV7); test: as above; conditions: tritium labeled fenfluramine, 1 or 5 micromolar in confirmation; HEK293 cells; FIG. 1
T2 construct: arrays of expression vectors, encoding full-length human plasma membrane and tethered secreted proteins; expressed in transfected cells; host or cells: HEK293
T2 sequence (Q68DV7 24-783): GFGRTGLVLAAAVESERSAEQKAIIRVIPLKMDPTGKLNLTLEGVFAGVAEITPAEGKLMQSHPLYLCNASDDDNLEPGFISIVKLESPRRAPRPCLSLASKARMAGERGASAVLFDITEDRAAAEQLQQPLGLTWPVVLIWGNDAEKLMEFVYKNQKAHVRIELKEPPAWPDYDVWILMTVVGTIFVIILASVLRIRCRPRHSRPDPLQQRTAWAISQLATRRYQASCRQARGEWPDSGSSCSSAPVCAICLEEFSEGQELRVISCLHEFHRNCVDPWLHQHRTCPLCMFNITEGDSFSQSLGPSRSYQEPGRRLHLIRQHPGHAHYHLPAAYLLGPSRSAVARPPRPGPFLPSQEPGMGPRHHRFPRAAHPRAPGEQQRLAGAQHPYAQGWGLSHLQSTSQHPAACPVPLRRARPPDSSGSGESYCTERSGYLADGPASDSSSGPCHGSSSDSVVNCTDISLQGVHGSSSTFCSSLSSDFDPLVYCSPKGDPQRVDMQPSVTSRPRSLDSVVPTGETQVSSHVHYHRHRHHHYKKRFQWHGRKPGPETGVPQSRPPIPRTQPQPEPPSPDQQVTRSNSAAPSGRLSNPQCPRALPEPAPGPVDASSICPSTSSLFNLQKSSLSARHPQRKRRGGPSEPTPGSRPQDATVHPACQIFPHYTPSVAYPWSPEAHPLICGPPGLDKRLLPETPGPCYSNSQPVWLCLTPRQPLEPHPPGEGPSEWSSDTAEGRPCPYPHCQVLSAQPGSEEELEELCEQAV
Procedure: as §5

T1 sequence (Q99720 whole entry): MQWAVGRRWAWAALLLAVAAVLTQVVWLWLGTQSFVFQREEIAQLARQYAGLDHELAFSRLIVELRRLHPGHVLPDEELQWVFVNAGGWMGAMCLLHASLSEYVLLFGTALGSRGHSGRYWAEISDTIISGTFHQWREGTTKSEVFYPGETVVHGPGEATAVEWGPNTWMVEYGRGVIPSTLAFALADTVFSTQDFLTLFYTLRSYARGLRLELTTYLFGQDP

SMILES	CD11b Avg Score, Genu (SCN1a+/− (Dravet) mice [1])	CD11b Avg Score, PP (SCN1a+/− (Dravet) mice [1])	CD11b Avg Score, PP + Genu (SCN1a+/− (Dravet) mice [1])	effect on CD11b+ activated microglia vs vehicle (saline) (SCN1a+/− (Dravet) mice [1])	DMBP Avg Score, Ctx (SCN1a+/− (Dravet) mice [2])	DMBP Avg Score, Hipp (SCN1a+/− (Dravet) mice [2])	DMBP Avg Score, Hipp + Ctx (SCN1a+/− (Dravet) mice [2])	effect on myelin debris (D-MBP) score vs vehicle (saline) (SCN1a+/− (Dravet) mice [2])	probability of survival over time (SCN1a+/− (het) mice)	binding interaction with sigma-1 (sigma-1 receptor)	binding interaction with RNF43 (RNF43)
CN1C(=O)CN=C(c2ccccc2)c2cc(Cl)ccc21 [Diazepam, diazepam]	3.00	3.67	6.67	not significant	2.44	3.22	5.67	not significant			
CCNC(C)Cc1cccc(C(F)(F)F)c1 (racemic) [FFA, (RS)-N-ethyl-1-[3-(trifluoromethyl)phenyl]propan-2-amine]	2.54	2.77	5.31	reduced activated microglia	2.54	2.62	5.15	significantly reduced the myelin debris (D-MBP) score	increases the probability of survival	interactions were identified in the primary screen	interactions were identified in the primary screen
